Measurements from US20250214951A1, “3-PHENYLISOXAZOLE DERIVATIVE, AND PHARMACEUTICAL COMPOSITION FOR PREVENTING OR TREATING EYE DISEASE, CONTAINING SAME AS ACTIVE INGREDIENT” (VASTHERA CO., LTD., priority 2022, published 2025).

What was measured:
[1] = system: A2E-BDP present in human retinal pigment epithelial cells (ARPE-19); experiment: Screening of ability to remove A2E-fluorescent labeling substance (A2E-BDP), lysate fluorescence; type: cell-based; details: ARPE-19, 24 h, ARPE-19 loaded with 10 μM A2E-BDP 24 h, test compound 50 μM once, fluorescence ex 485/em 535 nm, read-out: Capacity (%) to remove A2E-BDP at 50 μM
Method: (§1) The human retinal pigment epithelial cell line (ARPE-19) used in the experiment was provided by ATCC (American Type Culture Collection). The ARPE-19 cell line was cultured in DMEM medium containing 10% FBS. After culture, the cells were dispensed into 96-well plates at a concentration of 4×10^3 cells/well and cultured for 24 hours. The ARPE-19 cell line was treated with A2E-fluorescent labeling substance (A2E-BDP) at a concentration of 10 μM for 24 hours to induce the accumulation of A2E-BDP in the ARPE-19 cell line.
(§2) In order to evaluate the intracellular A2E removal ability of the compound of the present invention, an easily detectable A2E-fluorescent labeling substance (A2E-BDP) was used. The ARPE-19 cells prepared by the above method were treated with each test compound at a concentration of 50 μM once, and then cultured for 24 hours. The cells were lysed by adding a cell lysis buffer containing a protease inhibitor (50 mM Tris-chloride, pH 8.0, 150 mM sodium chloride, 1% NP-40, 1% sodium deoxycholate, 1% sodium dodecyl sulfate, and 2 mM ethylenediamine tetraacetic acid) to each 96-well. The prepared cell lysate was transferred to a white 96-well plate, and the fluorescence intensity was measured using a fluorescence microplate reader (VICTOR™ X3, Perkin Elmer, USA) (excitation 485 nm, emission 535 nm).

LC3-II = experiment: Autophagy activation in ARPE-19 (LC3-II Western, GFP-LC3 puncta); type: cell-based, human; details: 12 h
Method: ARPE-19 was dispensed into a 6-well plate at a concentration of 1×10^5 cells/well and cultured for 24 hours. Then, cells were treated with example 17 compound of the present invention at concentrations of 10, 25, and 50 μM for 12 hours. Then, a cell lysis buffer containing a protease inhibitor was added to prepare a cell lysate. The LC3-II level was measured by Western immunoblotting using an anti-LC3-II antibody (Cell Signaling Technology, MA, USA). As an internal control, an antibody against β-actin (Cell Signaling Technology) was used and measured by Western immunoblotting in the same manner as above, and is shown in FIG. 6 (upper graph).
Meanwhile, intracellular autophagosome formation was observed as follows. The ARPE-19 cells were transfected with a plasmid expressing GFP-LC3 (Addgene Inc., MA, USA) using Lipofectamine™ 2000 reagent (Invitrogen, Carlsbad, CA, USA). After 48 hours of culture, the cells were treated with example 17 compound of the present invention at a concentration of 25 μM. After additional 12 hours of culture, the cells were fixed using 4% paraformaldehyde for 10 minutes. The cells were then washed three times with PBS every 5 minutes. Finally, the puncta formation of GFP-LC3 was observed using a confocal laser scanning microscope (Nikon, Tokyo, Japan). […]

LC3-II (autophagy flux) = experiment: Autophagy flux in ARPE-19 with or without bafilomycin A1; type: cell-based, human; details: 10, 25, 50 μM, 12 h, bafilomycin A1 2 nM 4 h, FIG. 7
Method: Autophagy flux was measured by comparing the degree of change in LC3-II protein formation by treatment with example 17 compound of the present invention in the presence and absence of bafilomycin A1 (Abcam, Cambridge, United Kingdom) by Western blotting (Seranova E. et al. Autophagy: Methods and Protocols, Methods in Molecular Biology, vol. 1880, pp 389-428, 2019, https://doi.org/10.1007/978-1-4939-8873-0_26).
The autophagy flux measurement in this experiment used saturating concentrations of bafilomycin A1, known as an autophagy inhibitor. […] Therefore, the effect of the example compound of the present invention on autophagy flux can be determined by examining the level of LC3-II following treatment with the example compound of the present invention in the presence or absence of saturating concentrations of bafilomycin A1.
Specifically, in this experiment, ARPE-19 cell lines were seeded in 6-well plates at a concentration of 1×10^5 cells/well and cultured for 24 hours. […] The LC3-II level was measured by the Western immunoblotting method using a specific anti-LC3-II antibody (Cell Signaling Technology, MA, USA). Meanwhile, after treating with example 17 compound in the same manner as above under the condition of treating with bafilomycin A1 at a concentration of 2 nM for 4 hours, the amount of LC3-II was measured by the Western immunoblotting method. […]

A2E-BDP in ARPE-19 cells = experiment: A2E-BDP removal ability by concentration of other example compounds; type: cell-based, human; details: indicated concentrations; FIG. 13
Method: as §1, §2
The A2E-fluorescent labeling substance (A2E-BDP) removal ability was evaluated according to Experimental Example 1 (except that the test compound was treated at the indicated concentration).

**Q.** What does the source list for `C=CCOCc1cc(-c2cc(CC=C)ccc2OC)no1` [Example 17, 3-(5-allyl-2-methoxyphenyl)-5-((allyloxy)methyl)isoxazole]?
**A.** inhibition at 50 µM [1]: ≥ 60%; LC3-II level (Western immunoblotting) (LC3-II; ARPE-19, 10, 25, 50 μM, FIG. 6 graph): an increase in LC3-II; puncta formation of GFP-LC3 (confocal microscope) (LC3-II; GFP-LC3 transfected ARPE-19, 25 μM, FIG. 6 photograph): intracellular LC3-II puncta were observed; autophagy flux (difference in LC3-II with/without bafilomycin A1) (LC3-II (autophagy flux)): significantly increases autophagy flux; A2E-BDP removal ability by concentration (amount of A2E) (A2E-BDP in ARPE-19 cells): concentration-dependent decrease in the amount of A2E
